Measured values reported in US5198445A, “Composition and use of substituted 3-thio-2-propynenitriles as industrial antimicrobials” (The Dow Chemical Company, priority 1992, dated 1993).
Converted amounts (≈) assume the structure as drawn. Where two headings read alike, the source gives them in different places.

Key:
Trichoderma viride (Tv) = test: MIC in malt yeast agar, Trichoderma viride; type: cell-based, Trichoderma viride ATCC 8678; details: read-out: Minimum Inhibitory Concentration, Tv
Description: (§1) The minimum inhibitory concentration (MIC) for the compounds listed in Table I is determined for 9 bacteria, using nutrient agar, and 7 yeast and fungi, using malt yeast agar. A one percent solution of the test compound is prepared in a mixture of acetone and water. Nutrient agar is prepared at pH 6.8, representing a neutral medium, and at pH 8.2, representing an alkaline medium. The nutrient agars are prepared by adding 23 g of nutrient agar to one-liter of deionized water. In addition, the alkaline medium is prepared by adjusting a 0.04M solution of N-[tris-(hydroxymethyl)methyl]-glycine buffered deionized water with concentrated sodium hydroxide to a pH of […]. Malt yeast agar is prepared by adding 3 g yeast extract and 45 g malt agar per liter of deionized water. The specific agar is dispensed in 30 ml aliquots into 25×200 mm test tubes, capped and autoclaved for 15 minutes at 115° C. The test tubes containing the agar are cooled in a water bath until the temperature of the agar is 48° C. Then, an appropriate amount of the one percent solution of the test compound is added (except in the controls where no compound is added) to the respective test tubes so that the final concentrations are 500, 250, 100, 50, 25, 10, 5, 2.5, 1.0 and zero parts per million of the test compound in the agar, thus having a known concentration of test compound dispersed therein. The contents of the test tubes are then transferred to respective petri plates. After drying for 24 hours, the petri plates containing nutrient agar are inoculated with bacteria and those containing malt yeast agar are inoculated with yeast and fungi.
The inoculation with the yeast and fungi is accomplished as follows. Cultures of yeast and fungi are incubated for seven days on malt yeast agar at 30° C. These cultures are used to prepare suspensions by the following procedure. A suspension of each organism is prepared by adding 10 ml of sterile saline and 10 microliters of octylphenoxy polyethoxy ethanol (TRITON® X-100, a trademark of Rohm & Haas Company) to the agar slant of yeast or fungi. The sterile saline/octylphenoxy polyethoxy ethanol solution is then agitated with a sterile swab to suspend the microorganism grown on the slant. Each resulting suspension is diluted into sterile saline (1 part suspension: 9 parts sterile saline). Aliquots of these dilutions are placed in individual wells of Steer's Replicator and petri plates inoculated as previously described. The petri plates are incubated at 30° C. and read after 48 hours for yeast and 72 hours for fungi.
(§2) Table II lists the bacteria, yeast and fungi used in the MIC test described above along with their respective American Type Culture Collection (ATCC) identification numbers.
(§3) The following MIC and MEC antimicrobial tests, whose results are shown in Tables XIII-XVII, are performed using the same methods as described hereinabove.

[1] = tested on: mixture of the bacterial organisms listed in Table II; test: Multiple Challenge Test in shampoo formulation; type: cell-based, bacteria listed in Table II; details: 10 challenges
Description: Additionally, the ability of the compounds of Table I to serve as preservatives in a variety of formulated industrial, household, and commercial products is tested using a Multiple Challenge Test Protocol. In this test, the formulations include a styrene-butadiene latex, a tape joint, a hand lotion, and a shampoo. The styrene-butadiene latex test formulation used is Latex DL 238A, available from The Dow Chemical Company. The compositions of the tape joint, hand lotion and shampoo test formulations can be found in Tables V-VII.
(§4) The formulations are separated into 50 g aliquots and placed in sterile bottles. An appropriate amount of a fresh one percent stock solution of the test compound in acetone-water is added to achieve the desired final concentrations. A small portion of each of the test formulations is streaked onto Tryptic Soy Agar (TSA) petri plates using sterile cotton swabs to ensure that the formulations are sterile. If the formulation is sterile, then it is inoculated with 0.1 ml of a mixture of equal aliquots of the 24 hour cultures of each of the bacterial organisms listed in Table II. The test formulations are then incubated at 30° C. After 24 hours, each sample is streaked onto a TSA petri plate using a sterile swab. All plates are then incubated at 30° C. for 48 hours and then rated for microbial growth using the rating system listed in Table VIII. Samples with a rating of 3 or less are reinoculated as described in the procedure for the first inoculation. Samples with a rating of 4 or greater are not reinoculated but after another 24 hours are restreaked on TSA agar.
The normal interpretation of the results is that a concentration of the antimicrobial being tested is considered to be effective if no ratings greater than a 3 are observed throughout the 10 challenges. The Minimum Effective Concentration (MEC), which is used to compare the activity of the antimicrobial additives in the end-use formulations, is the minimum level that is effective under the conditions of the Multiple Challenge Test.

[2] = tested on: Pseudomonas aeruginosa (Pa); test: MIC in nutrient agar, Pseudomonas aeruginosa; type: cell-based, Pseudomonas aeruginosa ATCC 10145
Description: as §1
The inoculation with bacteria is accomplished by using the following procedure. Twenty-four hour-cultures of each of the bacteria are prepared by incubating the respective bacteria in tubes containing nutrient broth for 24 hours at 30° C. in a shaker. Dilutions of each of the 24 hour-cultures are made so that nine separate suspensions (one for each of the nine test bacteria) are made, each containing 10^8 colony forming units (CFU) per ml of suspension of a particular bacteria. Aliquots of 0.3 ml of each of the bacterial suspensions are used to fill the individual wells of Steer's Replicator. For each microbial suspension, 0.3 ml was used to fill three wells (i.e., three wells of 0.3 ml each) so that for the nine different bacteria, 27 wells are filled. The Steer's Replicator is then used to inoculate both the neutral and alkaline pH nutrient agar petri plates.
The inoculated petri plates are incubated at 30° C. for 48 hours and then read to determine if the test compound which is incorporated into the agar prevented growth of the respective bacteria.
as §2, §3

[3] = tested on: mixture of the bacterial organisms listed in Table II; test: MEC in tape joint formulation after 3 months storage; type: cell-based, bacteria listed in Table II; details: 2190 h, pH between 5 and 7, after 3 months storage at room temperature
Description: as §4
(§5) The normal interpretation of the results is that a concentration of the antimicrobial being tested is considered to be effective if no ratings greater than a 3 are observed throughout the 10 challenges. […]

[4] = tested on: mixture of the bacterial organisms listed in Table II; test: MEC in paint formulation after 1 month storage; type: cell-based, bacteria listed in Table II; details: 730 h, pH between 7 and 9, after 1 month storage at room temperature
Description: as §4, §5

[5] = Stability of 3-thio-2-propynenitriles at pH 7 or above / in basic solution; type: physicochemical; details: basic solution / pH of 7 or above
Description: It has also been discovered that the compounds of the present invention may degrade at a pH of 7 or above over an extended time period to compounds which are less antimicrobially active than the original compounds of the present invention.

[6] = pH 8.2, read-out: Minimum Inhibitory Concentration, Pa

| SMILES | MIC (Trichoderma viride (Tv)) | MEC [1] | MIC (Trichoderma viride (Tv); malt yeast agar) | MIC [2, 6] | minimal effective concentration [3] | minimal effective concentration [4] | stability [5] | MIC ([2]; pH 6.8, read-out: Minimum Inhibitory Concentration, Pa) |
| --- | --- | --- | --- | --- | --- | --- | --- | --- |
| CCSC#CC#N [B, 3-ethylthio-2-propynenitrile] | 10 µg/mL (≈ 90 µM) | 25 ppm |  |  |  |  |  |  |
| N#CC#CSC1CCCC1 [C, 3-cyclopentylthio-2-propynenitrile] |  | 100 ppm | 2.5 µg/mL (≈ 16.5 µM) |  |  |  |  |  |
| CSC#CC#N [Compound A, 3-methylthio-2-propynenitrile] |  | 10 ppm | 0.25 µg/mL (≈ 2.57 µM) | 2.5 µg/mL (≈ 25.7 µM) | > 50 µg/mL | > 50 µg/mL | observed to decompose in a basic solution to several compounds |  |
| CSC=C(Cl)C#N [Compound G, 2-chloro-3-(methylthio)-2-propenenitrile] | 100 µg/mL (≈ 748 µM) |  |  | 5 µg/mL (≈ 37.4 µM) | > 50 µg/mL |  |  | 50 µg/mL (≈ 374 µM) |
| N#CC#CSc1ccc(Cl)cc1 [D, 3-(4-chlorophenylthio)-2-propynenitrile] |  | 100 ppm | 2.5 µg/mL (≈ 12.9 µM) |  |  |  |  |  |
